From ChEMBL document CHEMBL1201862, “PubChem BioAssay data set” (2004)
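Method: 48-hour compound exposure of cells in 96-well plates, five concentrations, linear interpolation of endpoints. Abbreviation: GI50, concentration required for 50% inhibition of growth.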 Active and inactive are the calls of the source. No stated cut-off is given here; in the data, active = GI50 up to about 1.1 µM and inactive = higher.

How the values were obtained:
Assay in all cases: DTP human tumour cell line panel, 48 h
[1] = system: NCI-H23
[2] = system: COLO 205
[3] = system: SK-MEL-5
[4] = system: PC-3
[5] = system: SF-539
[6] = system: HT-29
[7] = system: UACC-257
[8] = system: SN12C
[9] = system: OVCAR-4
[10] = system: CAKI-1
[11] = system: OVCAR-5
[12] = system: HOP-92
[13] = system: SNB-75
[14] = system: HCT-15
[15] = system: HOP-62
[16] = system: DU-145
[17] = system: OVCAR-3
[18] = system: RPMI-8226
[19] = system: UACC-62
[20] = system: SR
[21] = system: Hs-578T
[22] = system: MDA-MB-231
[23] = system: M14
[24] = system: UO-31
[25] = system: TK-10
[26] = system: HL-60
[27] = system: OVCAR-8
[28] = system: A498
[29] = system: A549
[30] = system: EKVX
[31] = system: SW-620
[32] = system: HCT-116
[33] = system: BT-549
[34] = system: MDA-MB-435
[35] = system: SF-295
[36] = system: CCRF-CEM
[37] = system: SK-OV-3
[38] = system: U-251
[39] = system: SK-MEL-2
[40] = system: HCC 2998
[41] = system: LOX IMVI
[42] = system: MCF7
[43] = system: SNB-19
[44] = system: RXF 393
[45] = system: NCI-H460
[46] = system: IGROV-1
[47] = system: NCI/ADR-RES
[48] = system: SF-268
[49] = system: SK-MEL-28
[50] = system: ACHN
[51] = system: MOLT-4
[52] = system: K562
[53] = system: KM12
[54] = system: 786-0
[55] = system: NCI-H226
[56] = system: MDA-N
[57] = system: T47D
[58] = system: Malme-3M
[59] = system: NCI-H522

Which GI50 [1] does the source give for `Nc1nc(Cl)cc(NCC2(CO)CC(Cc3ccccc3)C2)n1` (configuration not stated) here?
Its GI50 is 34.4 µM (inactive).

And the GI50 [2]?
The GI50 was 29.8 µM (inactive).

And the GI50 [3]?
The GI50 was 417 nM (active).

What about the GI50 [4] of the same compound?
Its GI50 is 30.6 µM (inactive).

And the GI50 [5]?
The GI50 was 59.3 µM (inactive).

What about the GI50 [6] of the same compound?
The GI50 was 29 µM (inactive).

And the GI50 [7]?
Its GI50 is 31.5 µM (inactive).

And the GI50 [8]?
Its GI50 is > 92.3 µM (inactive).

What about the GI50 [9] of the same compound?
Its GI50 is 24.2 µM (inactive).

And the GI50 [10]?
Its GI50 is > 73.5 µM (inactive).

And the GI50 [11]?
Its GI50 is > 58.7 µM (inactive).

What about the GI50 [12] of the same compound?
Its GI50 is 36.6 µM (inactive).

And the GI50 [13]?
Its GI50 is 28.6 µM (inactive).

And the GI50 [14]?
The GI50 was 9.55 µM.

What about the GI50 [15] of the same compound?
The GI50 was > 66.5 µM (inactive).

What about the GI50 [16] of the same compound?
Its GI50 is > 53.5 µM (inactive).

What about the GI50 [17] of the same compound?
The GI50 was 51.9 µM (inactive).

And the GI50 [18]?
The GI50 was 15 µM (inactive).

What about the GI50 [19] of the same compound?
The GI50 was 27.5 µM (inactive).

And the GI50 [20]?
The GI50 was 9.27 µM (inactive).

And the GI50 [21]?
Its GI50 is 38.7 µM (inactive).

What about the GI50 [22] of the same compound?
Its GI50 is 42.3 µM (inactive).

And the GI50 [23]?
Its GI50 is 16.2 µM (inactive).

What about the GI50 [24] of the same compound?
The GI50 was 23.4 µM (inactive).

What about the GI50 [25] of the same compound?
Its GI50 is 25.6 µM (inactive).

And the GI50 [26]?
The GI50 was 4.71 µM (inactive).

What about the GI50 [27] of the same compound?
The GI50 was 42.2 µM (inactive).

And the GI50 [28]?
The GI50 was 10.1 µM (inactive).

What about the GI50 [29] of the same compound?
Its GI50 is 19.1 µM (inactive).

And the GI50 [30]?
The GI50 was 3.35 µM (inactive).

What about the GI50 [31] of the same compound?
The GI50 was > 65.6 µM (inactive).

What about the GI50 [32] of the same compound?
Its GI50 is 5.81 µM (inactive).

And the GI50 [33]?
The GI50 was 20.4 µM (inactive).

What about the GI50 [34] of the same compound?
The GI50 was 19.4 µM (inactive).

And the GI50 [35]?
Its GI50 is 11.3 µM (inactive).

And the GI50 [36]?
The GI50 was 29.5 µM (inactive).

And the GI50 [37]?
The GI50 was 52 µM (inactive).

What about the GI50 [38] of the same compound?
Its GI50 is 27.9 µM (inactive).

And the GI50 [39]?
The GI50 was 22.3 µM (inactive).

What about the GI50 [40] of the same compound?
Its GI50 is 30.7 µM (inactive).

What about the GI50 [41] of the same compound?
Its GI50 is 4.37 µM (inactive).

What about the GI50 [42] of the same compound?
The GI50 was 11.2 µM (inactive).

What about the GI50 [43] of the same compound?
Its GI50 is 25.5 µM (inactive).

What about the GI50 [44] of the same compound?
Its GI50 is 20.4 µM (inactive).

And the GI50 [45]?
Its GI50 is 22.5 µM (inactive).

What about the GI50 [46] of the same compound?
The GI50 was 48.4 µM (inactive).

And the GI50 [47]?
The GI50 was 9.73 µM (inactive).

And the GI50 [48]?
Its GI50 is 21.6 µM (inactive).

And the GI50 [49]?
Its GI50 is 60.4 µM (inactive).

And the GI50 [50]?
The GI50 was 32 µM (inactive).

What about the GI50 [51] of the same compound?
Its GI50 is 16.5 µM (inactive).

And the GI50 [52]?
Its GI50 is 2.92 µM (inactive).

What about the GI50 [53] of the same compound?
The GI50 was 35.1 µM (inactive).

And the GI50 [54]?
The GI50 was > 60.8 µM (inactive).

And the GI50 [55]?
Its GI50 is 13.2 µM (inactive).

And the GI50 [56]?
The GI50 was 25.1 µM (inactive).

What about the GI50 [57] of the same compound?
Its GI50 is 1.34 µM (inactive).

And the GI50 [58]?
The GI50 was 29.4 µM (inactive).

What about the GI50 [59] of the same compound?
Its GI50 is 36.4 µM (inactive).

For `C1=C\CCCCN2C[C@H]3CCCC/C=C\CCCCN4CC[C@@H]([C@H](CCCCCC/1)C4)[C@H](C3)C2`, which GI50 [1] is on record?
The GI50 was 6.24 µM (inactive).

What about the GI50 [2] of the same compound?
The GI50 was 2.07 µM (inactive).

And the GI50 [3]?
The GI50 was 1610 nM (inactive).

What about the GI50 [4] of the same compound?
Its GI50 is 3.12 µM (inactive).

And the GI50 [5]?
The GI50 was 1.87 µM (inactive).

What about the GI50 [6] of the same compound?
The GI50 was 2.07 µM (inactive).

What about the GI50 [7] of the same compound?
The GI50 was 1.76 µM (inactive).

And the GI50 [8]?
The GI50 was 10 µM (inactive).

And the GI50 [9]?
Its GI50 is 1.62 µM (inactive).

And the GI50 [10]?
Its GI50 is 2.79 µM (inactive).

And the GI50 [11]?
Its GI50 is 7.5 µM (inactive).

What about the GI50 [12] of the same compound?
The GI50 was 2.38 µM (inactive).

And the GI50 [13]?
The GI50 was 2.16 µM (inactive).

And the GI50 [14]?
Its GI50 is 1.77 µM.

And the GI50 [15]?
The GI50 was 2.23 µM (inactive).

And the GI50 [16]?
The GI50 was 5.48 µM (inactive).

And the GI50 [17]?
The GI50 was 1.8 µM (inactive).

What about the GI50 [18] of the same compound?
Its GI50 is 1.57 µM (inactive).

What about the GI50 [19] of the same compound?
The GI50 was 1.87 µM (inactive).

And the GI50 [20]?
Its GI50 is 2.4 µM (inactive).

What about the GI50 [21] of the same compound?
The GI50 was 2.05 µM (inactive).

And the GI50 [22]?
The GI50 was 0.979 µM (active).

And the GI50 [24]?
Its GI50 is 1.66 µM (inactive).

And the GI50 [25]?
The GI50 was 2.28 µM (inactive).

What about the GI50 [26] of the same compound?
Its GI50 is 2.31 µM (inactive).

And the GI50 [27]?
The GI50 was 2.84 µM (inactive).

What about the GI50 [28] of the same compound?
Its GI50 is 6.65 µM (inactive).

And the GI50 [29]?
The GI50 was 2.09 µM (inactive).

What about the GI50 [30] of the same compound?
Its GI50 is 7.11 µM (inactive).

What about the GI50 [31] of the same compound?
The GI50 was 2.44 µM (inactive).

What about the GI50 [32] of the same compound?
The GI50 was 2.11 µM (inactive).

And the GI50 [33]?
The GI50 was 6.79 µM (inactive).

And the GI50 [34]?
The GI50 was 1.86 µM (inactive).

What about the GI50 [35] of the same compound?
Its GI50 is 1.71 µM (inactive).

And the GI50 [36]?
Its GI50 is 2.58 µM (inactive).

And the GI50 [37]?
Its GI50 is 8.09 µM (inactive).

What about the GI50 [38] of the same compound?
Its GI50 is 2.2 µM (inactive).

What about the GI50 [39] of the same compound?
Its GI50 is 1.88 µM (inactive).

And the GI50 [40]?
The GI50 was 0.51 µM (active).

And the GI50 [41]?
The GI50 was 1.74 µM (inactive).

And the GI50 [42]?
The GI50 was 1.93 µM (inactive).

What about the GI50 [43] of the same compound?
Its GI50 is 2.06 µM (inactive).

And the GI50 [44]?
Its GI50 is 1.52 µM (inactive).

What about the GI50 [45] of the same compound?
The GI50 was 1.76 µM (inactive).

What about the GI50 [46] of the same compound?
The GI50 was 3.37 µM (inactive).

What about the GI50 [47] of the same compound?
Its GI50 is 3.12 µM (inactive).

And the GI50 [48]?
The GI50 was 2.65 µM (inactive).

What about the GI50 [49] of the same compound?
The GI50 was 1.93 µM (inactive).

What about the GI50 [50] of the same compound?
The GI50 was 2.07 µM (inactive).

What about the GI50 [51] of the same compound?
Its GI50 is 1.49 µM (inactive).

And the GI50 [52]?
The GI50 was 1.47 µM (inactive).

What about the GI50 [53] of the same compound?
The GI50 was 1.82 µM (inactive).

What about the GI50 [54] of the same compound?
Its GI50 is 1.75 µM (inactive).

What about the GI50 [55] of the same compound?
The GI50 was 17.6 µM (inactive).

And the GI50 [56]?
The GI50 was 1.75 µM (inactive).

And the GI50 [57]?
Its GI50 is 2.61 µM (inactive).

What about the GI50 [58] of the same compound?
The GI50 was 1.85 µM (inactive).

And the GI50 [59]?
Its GI50 is 1.69 µM (inactive).
